Values joined by “and” are separate entries in the source; they are usually repeats but may differ in a detail not shown here. Equal entries are not always repeated. Where two headings read alike, the source gives them in different places.
Experiments:
[1] = Stability in human plasma at 37°C; format: in vitro ADME; conditions: for %stability in human plasma, mean / stability in human plasma, [QST], % of control: 37 C; for %stability in human plasma, mean: mean of 3; for stability in human plasma, [QST], % of control: single data points
Protocol: Hydroxamic acid–based compounds have been reported to display poor stability and high plasma clearance due to the presence of arylesterases and carboxylesterases in rodent blood ([34]). Therefore, we measured the stability of QST in mouse plasma and brain to determine whether drug degradation occurred during our sample preparations and equilibrium dialyses for the determination of unbound drug level (performed at 37°C). […] QST degradation was also observed in mouse brain homogenate (Figure 6B). However, perfusion of mice before brain collection prevented rapid drug degradation in the brain matrix. […] Degradation of QST can also be constrained if plasma and brain samples are processed at 4°C (Supplemental Figure 4A). All subsequent sample preparations were therefore performed on ice-cold baths to avoid degradation of QST in our PK analyses. […] The observed stability is probably due to the absence of esterases in human matrices, which are responsible for degradation of QST ([34]). Because we employed QST in several in vitro studies (Figures 1–4), the stability of the molecule was also tested in the cell media used to culture GSCs (neurobasal medium; see Methods).
Stability Study in Mouse Plasma, Mouse Brain, Human Plasma, Human Brain, and Neural […]
The stability of QST was determined in BALB/c mouse plasma, male nude athymic perfused and nonperfused mouse brain homogenate (1:9 w/v of PBS; pH 7.4), human brain (obtained from VRL Eurofins) homogenate (1:4 w/v of PBS; pH 7.4), pooled human plasma (Innovative Research), and neurobasal media. QST stock solutions (1 mM) were prepared in acetonitrile, subsequently diluted in a 40% methanol mixture, and added t o the matrices to make final concentrations of 100 nM or 10 nM. Then 50 or 30 µL of either plasma or brain homogenate containing QST were aliquoted into 1.5-mL microcentrifuge tubes (Eppendorf) and were incubated at either 4 °C or 37 °C for 0, 2, 4, 6, 12, or 24 hours (n = 3 at each time point). […]
Plasma and brain […]
homogenate samples were stored at −80 °C until LC-MS/MS analysis. […]

[2] = Total and unbound QST in tumor and contralateral brain, short-term treatment, orthotopic GB126 PDX; format: in vivo
Protocol: To establish the PK-PD correlation and efficacy in an orthotopic patient-derived xenograft (PDX) model of GBM, we implanted GB126 cells in the brains of athymic nude mice and began treatment once the tumors started growing exponentially. Tumor-bearing mice were treated with QST (10 mg/kg), with or without IR, on a MWF schedule (Figure 7A). As described above, IR was delivered locally to the brain in 2-Gy fractions 2 hours after being dosed with vehicle solution or QST, for a cumulative delivery of 6 Gy. To assess acute PD effects and drug levels after short-term QST treatment (1 week, 3 doses total), 10 mice from each experimental cohort were sacrificed 3 hours after receiving the third dose of vehicle solution or QST (Figure 7A). Plasma, tumors, and brain tissue contralateral to the tumors were collected and processed for PK and PD analyses. […] To assess PD modulation, we homogenized brain tumors to obtain whole-tissue protein lysates from each mouse and quantified changes in histone H3 acetylation levels using immunoblotting.
QST concentrations in specimens were measured using reverse-phase LC on the AB SCIEX QTRAP6500+ LC-MS/MS system by operating electrospray in the positive ion mode. For liquid chromatographic separation, gradient elution was performed using a Phenomenex Kinetex F5 100 Å column (100 × 2.1 mm, 2.6 μm). The initial composition of the mobile phase was 70% phase A (0.1% formic acid in water) and 30% phase B (0.1% formic acid in 1:1 acetonitrile/methanol) with a 0.35 mL/min flow rate. […] The total run time was 3.5 minutes. The internal standard used in this study was D8-infigratinib. […] LC-MS/MS analysis was performed using an Analyst 1.7 Chromatographic Data System. See Supplemental Methods for detailed PK experiments.
Gy on MWF for a total of 6 Gy in the first week of treatment. Treatment groups included vehicle (50% PEG-3000), QST (10 mg/kg) alone, 6 Gy whole-brain IR treatment with vehicle, and 6 Gy whole-brain IR treatment with 10 mg/kg QST. QST was administered to mice through intraperitoneal injections two hours prior to whole-brain radiation treatment. […]
For short-term PK-PD correlation studies, tumor-bearing mice were randomized into groups and underwent a single week of treatment with QST (10 mg/kg) on MWF. For mice receiving IR treatment with or without QST, mice were treated with 2 Gy on MWF for a total of 6 Gy. QST was administered to mice through intraperitoneal injections 2 hours before whole-brain radiation treatment. On the third and last day of treatment, mice were sacrificed and processed for PD and PK analyses 3 hours after administration of QST or vehicle. For PD analyses, the mice were euthanized with isoflurane, and the tumors were dissected out of the brain and flash-frozen for subsequent analysis through Western blotting and RNA sequencing.
Tissue from the hemisphere contralateral to the tumor was also collected as a normal brain/nontumor reference sample. For PK analyses, the mice were anesthetized with isoflurane, and at least 300 μL of blood was drawn from the right ventricle of the heart. The blood was collected in tubes containing 10 μL of 0.1 M KOH in EDTA to prevent blood coagulation. Blood samples were immediately centrifuged at 3000 rpm for 10 minutes at 4 °C to allow separation of plasma. After collection of the blood, the tumor was dissected out of the brain and flash -frozen.

[3] = acute treated tumors, individual mice

## Cn1cc(CNCC2CCN(c3ncc(C(=O)NO)cn3)CC2)c2ccccc21 [QST, quisinostat]
[1]; 10 nM, 0 hrs
  %stability in human plasma, mean: 100.0 % of control
  stability in human plasma, [QST], % of control: 96.2 % of control and 101.9 % of control
[1]; 10 nM, 2 hrs
  stability in human plasma, [QST], % of control: 98.7 % of control and 101.4 % of control and 99.6 % of control
[1]; 10 nM, 6 hrs
  %stability in human plasma, mean: 99.5 % of control
  stability in human plasma, [QST], % of control: 100.4 % of control and 102 % of control and 96.1 % of control
[1]; 10 nM, 24 hrs
  %stability in human plasma, mean: 97.7 % of control
  stability in human plasma, [QST], % of control: 93.7 % of control and 94.6 % of control and 104.9 % of control
[1]; 100 nM, 0 hrs
  %stability in human plasma, mean: 100.0 % of control
  stability in human plasma, [QST], % of control: 96.3 % of control and 100 % of control and 103.7 % of control
[1]; 100 nM, 2 hrs
  %stability in human plasma, mean: 102.1 % of control
  stability in human plasma, [QST], % of control: 105.4 % of control and 102.2 % of control and 98.8 % of control
[1]; 100 nM, 6 hrs
  %stability in human plasma, mean: 103.6 % of control
  stability in human plasma, [QST], % of control: 105.9 % of control and 102.8 % of control and 102 % of control
[1]; 100 nM, 24 hrs
  %stability in human plasma, mean: 99.0 % of control
  stability in human plasma, [QST], % of control: 101.6 % of control and 97 % of control and 98.2 % of control
[1]; 37°C
  stability in human plasma: completely stable
[2]; acute treated tumor-bearing mice, individual mice
  UNBOUND [QST], Brain: 1.55 nM and 0.424 nM and 0.84 nM and 2.425 nM and 1.0975 nM
[2]; acute treated tumor-bearing mice, individual mice, read-out: TOTAL [QST], brain
  concentration at 3 h: 31 nM and 8.48 nM and 48.5 nM and 21.95 nM
[2]; [3]
  TOTAL [QST], tumor: 634.32 nM and 1029.61 nM and 23.89 nM and 646.61 nM and 605.65 nM
  UNBOUND [QST], Tumor: 31.716 nM and 51.4805 nM and 1.1945 nM and 32.3305 nM and 30.2825 nM
[2]; athymic nude, mouse, brain tissue contralateral to the tumor, intraperitoneal, 10 mg/kg, acute treated tumor-bearing mice, mean, read-out: Total QST, brain, mean
  concentration at 3 h: 25.4 nM
[2]; athymic nude, mouse, brain tissue contralateral to the tumor, intraperitoneal, 10 mg/kg, acute treated tumor-bearing mice, mean, read-out: Unbound QST, brain, mean
  concentration at 3 h: 1.27 nM
[2]; athymic nude, mouse, brain tumor (orthotopic GB126 xenograft), intraperitoneal, 10 mg/kg, acute treated tumors, mean, read-out: Total QST, tumor, mean
  concentration at 3 h: 588 nM
[2]; athymic nude, mouse, brain tumor (orthotopic GB126 xenograft), intraperitoneal, 10 mg/kg, acute treated tumors, mean, read-out: Unbound QST, tumor, mean
  concentration at 3 h: 29.4 nM
[2]; athymic nude, mouse, in vivo, 10 mg/kg, acute treated tumor-bearing mice, individual mice, read-out: TOTAL [QST], brain
  concentration at 3 h: 16.8 nM

Source: article PMC10721329, “Quisinostat is a brain-penetrant radiosensitizer in glioblastoma” (JCI Insight, 2023)
